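Five compound concentrations were applied to cells in 96-well plates for 48 hours; endpoints were derived by simple linear interpolation of the resulting dose-response curve. GI50: concentration for 50% inhibition of growth. TGI marks complete inhibition of growth.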
Tests used:
Assay in all cases: inhibition of tumour cell growth, NCI panel, 48 h
[1] = test system: UACC-62 melanoma
[2] = test system: HL-60(TB) leukemia
[3] = test system: LOX IMVI melanoma
[4] = test system: HT29 colon
[5] = test system: MOLT-4 leukemia
[6] = test system: SW-620 colon
[7] = test system: NCI-H522 lung
[8] = test system: ACHN renal
[9] = test system: NCI-H226 lung
[10] = test system: HOP-92 NSCLC

CC1=CC(C)(C)Nc2ccc(Cc3ccc4c(c3)C(C)=CC(C)(C)N4)cc21
GI50 [1]: 6.95 µM | TGI [1]: 29 µM | GI50 [2]: 5.1 µM | TGI [2]: 34.1 µM | GI50 [3]: 15.1 µM | TGI [3]: 82.2 µM | GI50 [4]: 12.2 µM | TGI [4]: > 100 µM | GI50 [5]: 4.86 µM | TGI [5]: 54 µM | GI50 [6]: 11.5 µM | TGI [6]: 25.5 µM | GI50 [7]: 3.56 µM | TGI [7]: 16.1 µM | GI50 [8]: 11.1 µM | TGI [8]: > 100 µM | GI50 [9]: 20.2 µM | TGI [9]: > 100 µM | GI50 [10]: 8.42 µM | TGI [10]: 65.6 µM

Cc1nc2sc(C(=O)Nc3ccccc3)c(N)c2cc1C(O)c1ccccc1 (configuration not stated)
GI50 [1]: 0.382 µM | TGI [1]: > 48.3 µM | GI50 [2]: 0.234 µM | TGI [2]: 0.657 µM | GI50 [3]: 0.382 µM | TGI [3]: > 41.1 µM | GI50 [4]: 0.326 µM | TGI [4]: 17.6 µM | GI50 [5]: 0.367 µM | TGI [5]: 25.5 µM | GI50 [6]: 0.283 µM | TGI [6]: > 100 µM | GI50 [7]: 0.304 µM | TGI [7]: > 24.1 µM | GI50 [8]: 0.512 µM | TGI [8]: > 60.8 µM | GI50 [9]: 1.24 µM | TGI [9]: > 100 µM | GI50 [10]: 3.56 µM | TGI [10]: 54.5 µM

COC(=O)C(=O)C(C(C)=O)C(=O)NCc1ccccc1 (configuration not stated)
TGI [1]: > 100 µM | TGI [2]: > 100 µM | TGI [3]: > 100 µM | TGI [4]: > 100 µM | TGI [5]: > 100 µM | TGI [6]: 19 µM | TGI [7]: > 100 µM | TGI [8]: > 100 µM | TGI [9]: > 100 µM | TGI [10]: > 100 µM

Cc1c(Cl)cccc1NC(=O)c1sc2nc3c(cc2c1N)C(=O)CCC3
GI50 [1]: 0.0502 µM | TGI [1]: > 100 µM | GI50 [2]: 0.081 µM | TGI [2]: 0.769 µM | GI50 [3]: 0.0782 µM | TGI [3]: > 100 µM | GI50 [4]: 0.0445 µM | TGI [4]: > 33.4 µM | GI50 [5]: 0.466 µM | TGI [5]: > 100 µM | GI50 [6]: 0.0484 µM | TGI [6]: > 100 µM | GI50 [7]: 0.0204 µM | TGI [7]: 0.395 µM | GI50 [8]: 0.0825 µM | TGI [8]: > 61.5 µM | GI50 [9]: 0.102 µM | TGI [9]: > 37.1 µM | GI50 [10]: 0.0479 µM | TGI [10]: 24.1 µM

CSc1nnc(-c2cc3c([nH]c4ccccc43)c(-c3cccc(O)c3)n2)n1-c1ccc(C)cc1
GI50 [1]: 3.28 µM | TGI [1]: 21.5 µM | GI50 [2]: 3.02 µM | TGI [2]: > 100 µM | GI50 [3]: 5.05 µM | TGI [3]: > 100 µM | GI50 [4]: 3.39 µM | TGI [4]: > 100 µM | GI50 [5]: 3.65 µM | TGI [5]: > 100 µM | GI50 [6]: 5.8 µM | TGI [6]: > 100 µM | GI50 [7]: 2.26 µM | TGI [7]: 11.1 µM | GI50 [8]: 2.11 µM | TGI [8]: 6.06 µM | GI50 [9]: 3.32 µM | TGI [9]: 18 µM | GI50 [10]: 1.75 µM | TGI [10]: 7.59 µM

N#CC(C(=N/O)/C(=N\O)C(C#N)c1ccccc1)c1ccccc1 (configuration not stated)
TGI [1]: > 100 µM | TGI [2]: > 100 µM | TGI [3]: > 100 µM | TGI [4]: > 100 µM | TGI [5]: > 100 µM | TGI [6]: > 100 µM | TGI [7]: > 100 µM | TGI [8]: > 100 µM | TGI [9]: > 100 µM | TGI [10]: > 100 µM

O=C(NNc1ccccc1)c1ccc(Cl)c(Cl)c1
TGI [1]: > 100 µM | TGI [2]: 70.4 µM | TGI [3]: > 100 µM | TGI [4]: > 100 µM | TGI [5]: > 100 µM | TGI [6]: > 100 µM | TGI [7]: 23 µM | TGI [8]: > 100 µM | TGI [9]: > 100 µM | TGI [10]: > 100 µM

COc1ccc(/C=C2\COc3ccc(O)c(O)c3C2=O)cc1OC
GI50 [1]: 1.19 µM | TGI [1]: 2.86 µM | GI50 [2]: 0.44 µM | TGI [2]: 5.29 µM | GI50 [3]: 1.12 µM | TGI [3]: 2.54 µM | GI50 [4]: 2.12 µM | TGI [4]: 5.2 µM | GI50 [5]: 1.05 µM | TGI [5]: 9.13 µM | GI50 [7]: 0.199 µM | TGI [7]: 0.473 µM | GI50 [8]: 1.32 µM | TGI [8]: 2.75 µM | GI50 [9]: 3.91 µM | TGI [9]: 48.1 µM | GI50 [10]: 2.18 µM | TGI [10]: 5.91 µM

Cc1ccc(NC(=S)C#N)c(C)c1
TGI [1]: > 100 µM | TGI [2]: > 71.2 µM | TGI [3]: > 100 µM | TGI [4]: > 100 µM | TGI [5]: > 100 µM | TGI [6]: > 100 µM | TGI [7]: > 100 µM | TGI [8]: > 100 µM | TGI [9]: > 100 µM | TGI [10]: > 100 µM

C[C@@H](CS[As](C)C)C(=O)N1CCC[C@H]1C(=O)O
GI50 [1]: 0.207 µM | TGI [1]: 0.855 µM | GI50 [2]: 0.0994 µM | GI50 [3]: 0.172 µM | TGI [3]: 0.673 µM | GI50 [4]: 0.715 µM | TGI [4]: > 100 µM | GI50 [5]: 0.0933 µM | TGI [5]: 3.69 µM | GI50 [6]: 0.25 µM | TGI [6]: 2.05 µM | GI50 [7]: 0.0715 µM | TGI [7]: 0.199 µM | GI50 [8]: 0.113 µM | TGI [8]: 1.2 µM | GI50 [9]: 0.364 µM | TGI [9]: 1.65 µM | GI50 [10]: 0.0514 µM | TGI [10]: 0.542 µM

O=C1NC2(CCCCC2)C2CCCCC=C12 (configuration not stated)
TGI [1]: > 100 µM | TGI [2]: > 100 µM | TGI [3]: > 100 µM | TGI [4]: > 100 µM | TGI [5]: > 100 µM | TGI [6]: > 100 µM | TGI [7]: > 100 µM | TGI [8]: > 100 µM | TGI [10]: > 100 µM

CC(=O)c1ccc2c3c1[C@H]1O[C@H]1c1cccc(c1-3)[C@@H]1O[C@H]21
TGI [1]: 4.15 µM | TGI [2]: 5.75 µM | TGI [3]: 1.2 µM | TGI [4]: 7.81 µM | TGI [5]: > 32.6 µM | TGI [6]: 3.01 µM | TGI [7]: 1.1 µM | TGI [8]: 3.79 µM | TGI [9]: > 88.3 µM | TGI [10]: 3.69 µM

CCCCCCCCC(C)CCCCCCCCC(=O)OCC(COP(=O)([O-])OCC[N+](C)(C)C)OC(=O)CCCCCCCCC(C)CCCCCCCC (configuration not stated)
TGI [1]: > 100 µM | TGI [2]: > 100 µM | TGI [3]: > 100 µM | TGI [4]: > 100 µM | TGI [5]: > 100 µM | TGI [6]: > 100 µM | TGI [7]: > 100 µM | TGI [8]: > 100 µM | TGI [9]: > 100 µM | TGI [10]: > 100 µM

COC(=O)C12C34C=CC5(CCC6(C=CC1(CC3)O6)C52C(=O)OC)O4 (configuration not stated)
TGI [2]: > 100 µM | TGI [3]: > 100 µM | TGI [4]: > 100 µM | TGI [5]: > 100 µM | TGI [6]: > 100 µM | TGI [7]: > 100 µM | TGI [8]: > 100 µM | TGI [9]: > 100 µM | TGI [10]: > 100 µM

COc1c(-c2ccc3c(c2)OCO3)oc2cc(O)cc(O)c2c1=O
TGI [1]: > 100 µM | TGI [2]: > 100 µM | TGI [3]: > 100 µM | TGI [4]: > 100 µM | TGI [5]: > 100 µM | TGI [7]: 83.8 µM | TGI [8]: > 100 µM | TGI [9]: > 100 µM | TGI [10]: > 100 µM

O=[N+]([O-])c1cccc(S(=O)(=O)N/N=C/c2cc(I)cc([N+](=O)[O-])c2O)c1
TGI [1]: 45.2 µM | TGI [2]: 47 µM | TGI [3]: 62.3 µM | TGI [4]: 73.6 µM | TGI [5]: 81.5 µM | TGI [6]: 58.5 µM | TGI [7]: 35.9 µM | TGI [8]: 95.8 µM | TGI [10]: 35.1 µM

CCCS(=O)c1nc(COC(=O)NC)c(COC(=O)NC)n1C (configuration not stated)
TGI [1]: > 100 µM | TGI [2]: > 100 µM | TGI [3]: > 100 µM | TGI [4]: > 100 µM | TGI [5]: > 100 µM | TGI [6]: > 100 µM | TGI [7]: > 100 µM | TGI [9]: > 100 µM | TGI [10]: > 100 µM

— PubChem BioAssay (NCI)
